Cytotoxicity data for 71 compounds are collected here from ChEMBL document CHEMBL3507680, “University of Dundee, Gates Library screen for HepG2 cell viability”.

A short description of this series: Human HepG2 cell viability assay in 384 well format. Format: toxicity, cell-based. The arrangement: dose 125 nL, time 70.5 hour; cytotoxicity at 70.5 h: concentration not given beside the values. As to conditions: HepG2 cells, read-out: Inhibition.
`O=c1ccc(-c2cccs2)nn1CN1CCCCCC1`: the cytotoxicity at 70.5 h is -24.8%.

With `CC(C)CC(=O)Nc1cccc(CNCc2cccs2)c1`, the cytotoxicity at 70.5 h is -3.67%.

With `Cc1ccc(CNC(=O)c2ccc(=O)n(C)n2)c(OC2CCCC2)c1`, the cytotoxicity at 70.5 h is -5.94%.

With `CC(=O)N1CCC2(CCN(C(=O)c3ccc(Cl)c(C(F)(F)F)c3)CC2)C1`, the cytotoxicity at 70.5 h came out at 1.62%.

Turning to `Cn1nnc2c1C(COCc1ccccn1)CN(Cc1ccoc1)C2` (stereo unspecified), the cytotoxicity at 70.5 h is -12.1%.

On to `O=C1CCC2(CCN(c3ncc(F)cn3)CC2)N1Cc1ccncc1`, for which the cytotoxicity at 70.5 h was determined as 7.51%.

With `CN1CCN(C)C2(CCN(Cc3ccsc3)CC2)C1=O`, the cytotoxicity at 70.5 h is 16.8%.

For `Fc1ccc(-c2nc(CN3CCn4c(nnc4C4CC4)C3)co2)cc1`, the cytotoxicity at 70.5 h is -8.13%.

Turning to `CCc1cccc(CC)c1NC(=O)c1ccccc1N(C)S(C)(=O)=O`, the cytotoxicity at 70.5 h is -8.14%.

For the compound `CSCC(C)NCc1ccc2[nH]c(C)c(C)c2c1` (stereo unspecified), the cytotoxicity at 70.5 h was 1.07%.

Consider `CCOCC1CN(c2ccc(C)nn2)Cc2nn(CC)cc21` (stereo unspecified), for which the cytotoxicity at 70.5 h was -7%.

Turning to `Cc1nc[nH]c1-c1nc2cc(S(=O)(=O)N3CCCC3)ccc2n1C`, the cytotoxicity at 70.5 h is -2.05%.

As to `CN(Cc1ccco1)c1ccc(-c2nccn2C)nn1`, the cytotoxicity at 70.5 h is 9.03%.

Regarding `Cc1oc(-c2ccco2)nc1CC(=O)N1CCC(CCO)C1` (stereo unspecified), the cytotoxicity at 70.5 h is -11%.

For the compound `CC[C@@]1(O)CCN(C(=O)CCc2cnn(C)c2)C[C@H]1O`, the cytotoxicity at 70.5 h is -9.56%.

In the case of `Cc1noc(C)c1-c1ccc(C2CCCN2C(=O)c2cnn(C)c2)nc1` (stereo unspecified), the cytotoxicity at 70.5 h is -0.651%.

With `O=c1ccc2c(n1CC1CC1)CCC(NCc1cccs1)C2` (stereo unspecified), the cytotoxicity at 70.5 h is -10.4%.

As to `CN(CC(=O)N(C)C(c1cccnc1)c1ccc(F)c(F)c1)C1CC1` (stereo unspecified), the cytotoxicity at 70.5 h was found to be 22.6%.

For `CCOC1CCN(C(=O)c2csc(S(N)(=O)=O)c2)CC1`, the cytotoxicity at 70.5 h was -4.71%.

Regarding `Cc1cc(-c2noc(C3CCS(=O)(=O)C3)n2)ccc1F` (stereo unspecified), the cytotoxicity at 70.5 h was -11%.

For the compound `CN1CCCN(S(=O)(=O)c2cn(C)cn2)c2cc(F)ccc21`, the cytotoxicity at 70.5 h turned out to be 4.76%.

Consider `NC(=O)Cn1ccc(NC(=O)C2(c3ccc(F)cc3)CC2)n1`, for which the cytotoxicity at 70.5 h was -11.2%.

Take `O=C(O)c1cncc(Cc2ccccc2F)c1`: the cytotoxicity at 70.5 h is -6.6%.

`O=C(CN1CCNCC1)NCc1ccc2sccc2c1`: the cytotoxicity at 70.5 h was found to be 3.14%.

As for `CCNc1ncc(C(=O)NCC2OCCc3ccccc32)cn1` (stereo unspecified), the cytotoxicity at 70.5 h is -3.21%.

Consider `Cn1ccnc1SCCNC(=O)c1c[nH]nc1C1CCCCC1`, for which the cytotoxicity at 70.5 h is -8.06%.

Consider `CCc1[nH]ncc1C(=O)N1CCCN(Cc2cnn(C(C)C)c2)CC1`, for which the cytotoxicity at 70.5 h stood at 6.52%.

Turning to `CC(=O)N1CCC(N[C@@H]2CO[C@H](CNC(=O)c3cccs3)[C@H]2O)CC1`, the cytotoxicity at 70.5 h amounted to 4.51%.

As for `Cc1ccccc1CCCN(Cc1ccccn1)S(C)(=O)=O`, the cytotoxicity at 70.5 h is -0.248%.

Take `CC(=O)NCc1ccc(C(=O)N2CCCC2c2cnn(C)c2)cc1` (stereo unspecified): the cytotoxicity at 70.5 h is -6.89%.

For the compound `O=C(Nc1ccc2c(c1)OCCO2)N1CCCN(Cc2cccs2)CC1`, the cytotoxicity at 70.5 h was determined as 0.682%.

Turning to `CCc1noc(C(C)N2CCN(S(=O)(=O)N3CCCC3)CC2)n1` (stereo unspecified), the cytotoxicity at 70.5 h was -8.69%.

Turning to `COC(=O)c1cccnc1N1CCC(Oc2cccc(F)c2)CC1`, the cytotoxicity at 70.5 h was 1.14%.

As for `CCN(C)CC1CCN(S(=O)(=O)c2cc(C)c(F)cc2Cl)C1` (stereo unspecified), the cytotoxicity at 70.5 h is -4.14%.

As for `O=C(c1ccccc1)N1CCC[C@]2(C[C@@H](OCc3ccncc3)CO2)C1`, the cytotoxicity at 70.5 h is -4.9%.

For `CCN1CCN(S(=O)(=O)c2cc(C)c(Cl)cc2C)CC1`, the cytotoxicity at 70.5 h was found to be 2.46%.

Take `O=c1ccc(-n2ccnc2)nn1CCNS(=O)(=O)c1ccccc1Cl`: the cytotoxicity at 70.5 h was -1.86%.

For `CC(NC(=O)CNCCn1cccn1)c1ccc2c(c1)OCCO2` (stereo unspecified), the cytotoxicity at 70.5 h was -7.87%.

With `CCc1nc(CN2CCCC(NCc3cccc(C(N)=O)c3)C2)no1` (stereo unspecified), the cytotoxicity at 70.5 h is -6.52%.

Turning to `CC(C)(C)C(=O)NCC(=O)NCC1CCCS1` (stereo unspecified), the cytotoxicity at 70.5 h was -10.6%.

For the compound `O=C(c1ccc(CNC2CCSC2)cc1)N1CCCC1` (stereo unspecified), the cytotoxicity at 70.5 h was -0.303%.

Turning to `Cc1cc(N2CCC(N(C)C(=O)c3ccc(C#N)cc3)CC2)nc(C)n1`, the cytotoxicity at 70.5 h is -7.65%.

Turning to `CCN(CC)S(=O)(=O)CC(=O)N1CCc2ccc(Cl)cc21`, the cytotoxicity at 70.5 h was -1.78%.

On to `CN1CCN(C(=O)c2cc(C#N)cn2C)c2ccccc2C1`, for which the cytotoxicity at 70.5 h was -2.54%.

Take `CC(=O)NCc1cc2n(n1)CCN(Cc1cccc(CCN)c1)C2`: the cytotoxicity at 70.5 h was -2.57%.

In the case of `CC(CO)(NC(=O)NCCc1ccc(Br)s1)C1CC1` (stereo unspecified), the cytotoxicity at 70.5 h was -11%.

Take `CCOC(=O)[C@H]1[C@@H](O)C(=O)N(C)C12CCN(C(=O)c1ccccc1)CC2`: the cytotoxicity at 70.5 h is -2.45%.

Take `CN(Cc1ncc[nH]1)S(=O)(=O)c1cccc(C(=O)N2CCOCC2)c1`: the cytotoxicity at 70.5 h is -2.7%.

Regarding `Cc1cnn(CC2CCCN2C(=O)Cc2c(C)nc(C)[nH]c2=O)c1` (stereo unspecified), the cytotoxicity at 70.5 h turned out to be 15.2%.

In the case of `Cc1cc(CN(C)C(=O)C2CCCN(C(=O)c3ccc(Cl)cc3)C2)no1` (stereo unspecified), the cytotoxicity at 70.5 h was -10.8%.

In the case of `c1cc(CC2CCCNC2)nc(NCCc2cnccn2)c1` (stereo unspecified), the cytotoxicity at 70.5 h was -11.1%.

On to `Cn1cc(CN2CCC[C@]3(C[C@@H](Oc4ncccc4F)CO3)C2)cn1`, for which the cytotoxicity at 70.5 h was -6.45%.

As to `CN(Cc1ccco1)[C@@H]1CN(Cc2ccc(F)cc2)C[C@@H]2CCCO[C@@H]21`, the cytotoxicity at 70.5 h was determined as 2.25%.

Take `Fc1ccc(CN2CCC(c3n[nH]c4ncccc34)CC2)cc1F`: the cytotoxicity at 70.5 h turned out to be 22.2%.

Take `NC(=O)c1cccc(OCC(=O)N2CCCC(n3cccn3)C2)c1` (stereo unspecified): the cytotoxicity at 70.5 h worked out at 3.84%.

With `CN(C)C(=O)[C@H]1C[C@@H]2CCN(C3CCOCC3)C[C@@H]2O1`, the cytotoxicity at 70.5 h is -2.42%.

As for `CCCNC(=O)Cn1nc(C)c2cnn(C(C)(C)C)c2c1=O`, the cytotoxicity at 70.5 h is 19.1%.

As for `Cc1ccc(CN(C)C(=O)CN2CCOC(Cn3cccn3)C2)o1` (stereo unspecified), the cytotoxicity at 70.5 h is -3.39%.

Turning to `O=C(NC1CC1)C1CCN(c2snc3ccccc23)CC1`, the cytotoxicity at 70.5 h came out at 15.8%.

Turning to `Cc1cnn(CC2CCCN2Cc2noc(C)n2)c1` (stereo unspecified), the cytotoxicity at 70.5 h is -9.78%.

Regarding `Cc1cc(C)c(C(=O)N2CCn3nc(C(=O)NCCN(C)C)cc3C2)[nH]1`, the cytotoxicity at 70.5 h was -3.17%.

Consider `Cc1csc(CCNC(=O)N2CCC(n3cccc3)CC2)n1`, for which the cytotoxicity at 70.5 h was -7.68%.

On to `CCS(=O)(=O)CCNC(=O)NC(C)c1cc(C)sc1C` (stereo unspecified), for which the cytotoxicity at 70.5 h is -15.4%.

As for `CC(C)CN1CC(c2nc(C3CC3)n[nH]2)CC1=O` (stereo unspecified), the cytotoxicity at 70.5 h is -9.82%.

For the compound `Cc1cnn(C2CCCN(C(=O)c3ccc(N4CCCC4)nn3)C2)c1` (stereo unspecified), the cytotoxicity at 70.5 h came to 1.64%.

With `O=C(c1cscn1)N1CCCC(n2cncn2)C1` (stereo unspecified), the cytotoxicity at 70.5 h is -8.94%.

In the case of `CN(C)c1cc2c(nn1)CCN(C(=O)c1ccc(-n3cccn3)nc1)C2`, the cytotoxicity at 70.5 h was -25.2%.

`COc1cnc(C2(O)CCN(C(=O)c3ccco3)CC2)c(OC)n1`: the cytotoxicity at 70.5 h is -9.83%.

For `CCN(CC)C(=O)CCc1c(C)nc2cc(O)nn2c1C`, the cytotoxicity at 70.5 h is -3.01%.

On to `CN(C)S(=O)(=O)N1CC(c2nc(N)ncc2-c2ccc(F)cc2)C1`, for which the cytotoxicity at 70.5 h was -0.38%.

For the compound `O=C(c1ccncn1)N1CCC[C@]2(C[C@H](Oc3ncccc3F)CO2)C1`, the cytotoxicity at 70.5 h amounted to 23.2%.
